Key:
Format in all cases: biochemical
Details in all cases: recombinant human active domain, substrate 4 uM, room temperature
MMP-1 = target: T1, MMP-1 (Homo sapiens, UniProt P03956); experiment: MMP inhibitory assay, fluorescent substrate, MMP-1
T1 construct: All the enzymes are recombinant human active domains from E. coli (Biomol); purchased Biomol; host or cells: E. coli
T1 sequence (P03956 100-269 limits assumed): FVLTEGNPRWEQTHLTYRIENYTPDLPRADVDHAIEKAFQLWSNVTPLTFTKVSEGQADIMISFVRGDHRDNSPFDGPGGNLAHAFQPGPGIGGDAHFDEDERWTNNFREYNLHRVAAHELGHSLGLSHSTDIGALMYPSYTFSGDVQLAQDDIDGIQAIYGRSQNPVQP
Experimental: (§1) The enzymatic activities of MMPs were assayed according to manufacture protocols (Biomol Reseaerch Laboratory, Inc. E-mail: info@biomol.com). All the enzymes are recombinant human active domains from E. coli (Biomol). The fluorescent substrate has the sequence of (7-methoxycoumarin-4-yl) acetyl-Pro-Leu-Gly-Leu-N-3-(2,4-dinitrophenyl)-L-α,β-diaminopropionyl-Ala-Arg-NH2.AcOH. All the assays were conducted at room temperature with 96 well flat bottom black plate (Nalge Nunc International, Catalog number, 465200). Briefly, certain amount of enzyme in 89 ul of assay buffer (50 mM Hepes, 10 mM CaCl2, 0.05% Brij 35, pH 7.5) was incubated with (7 concentration per set) or without inhibitor (in 1 ul of DMSO, or 1 ul DMSO only) for 20 min. Then the enzymatic reaction was initiated by the addition of the substrate (40 uM in 10 ul of assay buffer and the final concentration of the substrate is 4 uM). The activity was determined by measuring the fluorescence at Ex/Em=328 nm/393 nm and it was linear within 2 hrs. The fluorescence was read at 0 and 20 or 40 min. The reading at 0 time would be considered as the background and subtracted from the final reading. The IC50 was obtained by plotting the fluorescences versus the concentrations of the inhibitors of each assay with Prism software. […] Mechanism studies reveal that the inhibitors are competitive. For competitive inhibitor: Ki=IC50/(1+[S]/Km)

MMP-7 = target: T2, MMP-7 (Homo sapiens, UniProt P09237); experiment: MMP inhibitory assay, fluorescent substrate, MMP-7
T2 construct: All the enzymes are recombinant human active domains from E. coli (Biomol); purchased Biomol; host or cells: E. coli
T2 sequence (P09237 95-267): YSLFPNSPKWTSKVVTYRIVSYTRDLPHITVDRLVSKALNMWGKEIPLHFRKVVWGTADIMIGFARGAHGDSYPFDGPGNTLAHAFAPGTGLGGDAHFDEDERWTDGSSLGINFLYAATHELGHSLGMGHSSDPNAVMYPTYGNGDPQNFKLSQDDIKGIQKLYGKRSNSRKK
Experimental: as §1

MMP-9 = target: T3, MMP-9 (Homo sapiens, UniProt P14780); experiment: MMP inhibitory assay, fluorescent substrate, MMP-9
T3 construct: All the enzymes are recombinant human active domains from E. coli (Biomol); purchased Biomol; host or cells: E. coli
Experimental: as §1

MMP-12 = target: T4, MMP-12 (Homo sapiens, UniProt P39900); experiment: MMP inhibitory assay, fluorescent substrate, MMP-12
T4 construct: All the enzymes are recombinant human active domains from E. coli (Biomol); purchased Biomol; host or cells: E. coli
Experimental: as §1
In the assay conditions, [S](4 uM) is smaller than Km (20 uM for MMP-12). So Ki equal to IC50/1.2, which is little smaller than IC50, or roughly equal to IC50.

MMP-13 = target: T5, MMP-13 (Homo sapiens, UniProt P45452); experiment: MMP inhibitory assay, fluorescent substrate, MMP-13
T5 construct: All the enzymes are recombinant human active domains from E. coli (Biomol); purchased Biomol; host or cells: E. coli
Experimental: as §1

MMP-2 = target: T6, MMP-2 (Homo sapiens, UniProt P08253); experiment: MMP inhibitory assay, fluorescent substrate, MMP-2
T6 construct: All the enzymes are recombinant human active domains from E. coli (Biomol); purchased Biomol; host or cells: E. coli
Experimental: as §1

MMP-3 = target: T7, MMP-3 (Homo sapiens, UniProt P08254); experiment: MMP inhibitory assay, fluorescent substrate, MMP-3
T7 construct: All the enzymes are recombinant human active domains from E. coli (Biomol); purchased Biomol; host or cells: E. coli
Experimental: as §1

T4 sequence (P39900 106-263 limits assumed): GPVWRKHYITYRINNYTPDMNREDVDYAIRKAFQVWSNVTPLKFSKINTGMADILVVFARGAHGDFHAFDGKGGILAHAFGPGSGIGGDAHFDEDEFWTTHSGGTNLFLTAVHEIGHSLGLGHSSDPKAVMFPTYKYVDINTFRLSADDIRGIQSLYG
T3 sequence (P14780 107-444 limits assumed): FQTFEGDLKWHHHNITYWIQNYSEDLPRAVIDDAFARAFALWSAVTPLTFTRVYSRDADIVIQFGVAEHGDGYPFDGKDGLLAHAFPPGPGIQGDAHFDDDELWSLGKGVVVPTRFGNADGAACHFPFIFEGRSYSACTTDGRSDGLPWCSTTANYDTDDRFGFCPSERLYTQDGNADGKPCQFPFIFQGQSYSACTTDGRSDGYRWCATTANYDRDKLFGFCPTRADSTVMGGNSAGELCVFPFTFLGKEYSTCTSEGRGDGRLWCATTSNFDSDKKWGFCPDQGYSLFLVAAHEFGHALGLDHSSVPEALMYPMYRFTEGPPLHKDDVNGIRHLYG
T7 sequence (P08254 100-272 limits assumed): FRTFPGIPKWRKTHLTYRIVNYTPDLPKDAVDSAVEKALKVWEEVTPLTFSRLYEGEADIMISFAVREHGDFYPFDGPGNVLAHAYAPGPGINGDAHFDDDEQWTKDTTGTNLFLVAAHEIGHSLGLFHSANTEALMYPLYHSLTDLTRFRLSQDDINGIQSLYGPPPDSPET
T6 sequence (P08253 110-446 limits assumed): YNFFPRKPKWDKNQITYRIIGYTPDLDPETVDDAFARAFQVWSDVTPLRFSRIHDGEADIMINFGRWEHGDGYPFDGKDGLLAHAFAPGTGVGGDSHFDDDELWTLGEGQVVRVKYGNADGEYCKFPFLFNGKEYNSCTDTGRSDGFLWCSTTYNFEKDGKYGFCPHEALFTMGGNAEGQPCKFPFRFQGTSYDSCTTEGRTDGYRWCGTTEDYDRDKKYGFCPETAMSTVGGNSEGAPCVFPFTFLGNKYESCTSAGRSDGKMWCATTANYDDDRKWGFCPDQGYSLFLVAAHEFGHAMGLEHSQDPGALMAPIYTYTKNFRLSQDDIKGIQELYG

Compound	IC50 (MMP-1)	IC50 (MMP-7)	IC50 (MMP-9)	IC50 (MMP-12)	IC50 (MMP-13)	IC50 (MMP-2)	IC50 (MMP-3)
O=C1NC(=O)C(c2occc2Sc2ccc(OCc3ccccc3)cc2)N1 (stereo not drawn) [IVa, 5-[3-(4-Benzoxyphenylthio)fur-2-yl]imidazoline-2,4-dione]	> 40000 nM	63700 nM	727 nM	13 nM	1070 nM	447 nM	2100 nM
O=C1NC(=O)C(c2occc2Sc2ccc(OCc3ccc(OCc4ccccc4)cc3)cc2)N1 (stereo not drawn) [IVb, 5-{3-[4-(4-Benzyloxybenzyloxy)phenylthio]fur-2-yl}imidazolidine-2,4-dione]	> 40000 nM	1880 nM	4470 nM	84 nM	335 nM	1180 nM	383 nM
O=C1NC(=O)C(c2occc2Sc2ccc(OCc3ccc(-c4ccccc4)cc3)cc2)N1 (stereo not drawn) [IVc, 5-{3-[4-(4-biphenylmethoxy)phenylthio]fur-2-yl}imidazoline-2,4-dione]	> 40000 nM	1040 nM	–	131 nM	707 nM	1740 nM	35900 nM
COc1ccc(COc2ccc(Sc3ccoc3C3NC(=O)NC3=O)cc2)cc1 (stereo not drawn) [IVd, 5-{3-[4-(4-Methoxybenzyloxy)phenylthio]fur-2-yl}imidazolidine-2,4-dione]	> 40000 nM	7600 nM	740 nM	10 nM	260 nM	422 nM	318 nM
COc1cccc(COc2ccc(Sc3ccoc3C3NC(=O)NC3=O)cc2)c1 (stereo not drawn) [IVe, 5-{3-[4-(3-Methoxybenzyloxy)phenylthio]fur-2-yl}imidazolidine-2,4-dione]	> 40000 nM	27400 nM	3760 nM	19 nM	2440 nM	2010 nM	3620 nM
COc1ccccc1COc1ccc(Sc2ccoc2C2NC(=O)NC2=O)cc1 (stereo not drawn) [IVf, 5-{3-[4-(2-Methoxybenzyloxy)phenylthio]fur-2-yl}imidazolidine-2,4-dione]	> 40000 nM	–	30400 nM	202 nM	11600 nM	233000 nM	–
COc1cc(COc2ccc(Sc3ccoc3C3NC(=O)NC3=O)cc2)cc(OC)c1 (stereo not drawn) [IVg, 5-{3-[4-(3,5-dimethoxybenzoxy)phenylthio]fur-2yl}imidazoline-2,4-dione]	> 40000 nM	–	35800 nM	264 nM	16800 nM	–	7950 nM
O=C1NC(=O)C(c2occc2Sc2ccc(OCc3ccc(Cl)cc3)cc2)N1 (stereo not drawn) [IVh, 5-{3-[4-(4-Chlorobenzyloxy)phenylthio]fur-2-yl}imidazolidine-2,4-dione]	> 40000 nM	7450 nM	255 nM	7 nM	329 nM	235 nM	157 nM
O=C1NC(=O)C(c2occc2Sc2ccc(OCc3cccc(Cl)c3)cc2)N1 (stereo not drawn) [IVi, 5-{3-[4-(3-Chlorobenzyloxy)phenylthio]fur-2-yl}imidazolidine-2,4-dione]	> 40000 nM	676000 nM	1440 nM	22 nM	773 nM	1020 nM	298 nM
O=C1NC(=O)C(c2occc2Sc2ccc(OCc3ccccc3Cl)cc2)N1 (stereo not drawn) [IVj, 5-{3-[4-(2-Chlorobenzyloxy)phenylthio]fur-2-yl}imidazolidine-2,4-dione]	> 40000 nM	–	1130 nM	57 nM	2410 nM	1840 nM	1090 nM
Cc1ccc(COc2ccc(Sc3ccoc3C3NC(=O)NC3=O)cc2)cc1 (stereo not drawn) [IVk, 5-{3-[4-(4-Methylbenzyloxy)phenylthio]fur-2-yl}imidazolidine-2,4-dione]	> 40000 nM	30900 nM	472 nM	15 nM	643 nM	612 nM	586 nM
Cc1cccc(COc2ccc(Sc3ccoc3C3NC(=O)NC3=O)cc2)c1 (stereo not drawn) [IVo, 5-{3-[4-(3-Methyl-benzyloxy)phenylthio]fur-2-yl}imidazolidine-2,4-dione]	> 40000 nM	46700 nM	2950 nM	11 nM	1950 nM	1110 nM	1350 nM
Cc1ccccc1COc1ccc(Sc2ccoc2C2NC(=O)NC2=O)cc1 (stereo not drawn) [IVp, 5-{3-[4-(2-Methyl-benzyloxy)phenylthio]fur-2-yl}imidazolidine-2,4-dione]	> 40000 nM	–	2080 nM	42 nM	4260 nM	7030 nM	4040 nM
O=C1NC(=O)C(c2occc2Sc2ccc(OCc3cccc(C(F)(F)F)c3)cc2)N1 (stereo not drawn) [IVq, 5-{3-[4-(3-Trifluoromethyl-benzyloxy)phenylthio]fur-2yl}imidazolidine-2,4-dione]	> 40000 nM	–	2880 nM	34 nM	2060 nM	2130 nM	3310 nM

Reference: patent US7179831B2, “5-[3-(4-benzyloxyphenylthio)-fur-2-yl]-imidazolidin-2, 4-dione and analogues as inhibitors of macrophage elastase” (Quest Pharmaceutical Services, priority 2004, dated 2007)
